Measurements taken from patent US7192906B2, “Substituted pyrazole derivatives, production process thereof, and herbicide compositions containing the derivatives” (SDS Biotech K.K., priority 2001, dated 2007).

Columns and labels:
Assay type in all cases: in vivo
Chenopodium album [1] = test: Test Example 1 upland field foliage treatment; settings: Table 4, upland field foliage treatment, index 0-5
Procedure, shortened: (§1)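 Post-emergence foliar spray of water-diluted wettable powder at 1 kg active ingredient per hectare, applied 14 days after sowing in upland soil. Weed control or crop phytotoxicity rated 21 days later on a 0–5 scale (5: ≥90%, 0: <10%).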

Digitaria adscendens [2] = test: Test Example 1 upland field foliage treatment; settings: Table 4, upland field foliage treatment, index 0-5
Procedure, shortened: as §1

Setaria viridis [3] = test: Test Example 1 upland field foliage treatment; settings: Table 4, upland field foliage treatment, index 0-5
Procedure, shortened: as §1

Stellaria media [4] = test: Test Example 1 upland field foliage treatment; settings: Table 4, upland field foliage treatment, index 0-5
Procedure, shortened: as §1

soybean (Glycine max) [5] = test: Test Example 1 upland field foliage treatment, crop phytotoxicity; settings: Table 4, upland field foliage treatment, index 0-5
Procedure, shortened: as §1

[6] = system: wheat (Triticum aestivum); test: as above; settings: Table 4, upland field foliage treatment, index 0-5
Procedure, shortened: as §1

Chenopodium album [7] = test: Test Example 2 upland soil treatment; settings: Table 5, upland soil treatment, index 0-5
Procedure, shortened: (§2)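 Pre-emergence soil application the day after sowing, active ingredient at 1 kg per hectare as diluted wettable powder, seeds covered with about 1 cm soil. Assessed 21 days after application on a 0–5 scale (5 = ≥90% herbicidal effect or phytotoxicity; 0 = <10%).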

Digitaria adscendens [8] = test: Test Example 2 upland soil treatment; settings: Table 5, upland soil treatment, index 0-5
Procedure, shortened: as §2

Setaria viridis [9] = test: Test Example 2 upland soil treatment; settings: Table 5, upland soil treatment, index 0-5
Procedure, shortened: as §2

Stellaria media [10] = test: Test Example 2 upland soil treatment; settings: Table 5, upland soil treatment, index 0-5
Procedure, shortened: as §2

soybean (Glycine max) [11] = test: Test Example 2 upland soil treatment, crop phytotoxicity; settings: Table 5, upland soil treatment, index 0-5
Procedure, shortened: as §2

[12] = system: wheat (Triticum aestivum); test: as above; settings: Table 5, upland soil treatment, index 0-5
Procedure, shortened: as §2

Ammannia multiflora = test: Test Example 3 paddy field treatment; settings: paddy field treatment, wettable powder, active ingredient 1 kg per hectare, 21st day after the dropping, index 0-5
Procedure, shortened: (§3)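 Weed seeds sown in puddled paddy soil under 4 cm water, with two-leaf Koshihikari rice transplanted; 10 days later a wettable powder was applied to the water surface at 1 kg active ingredient/ha. Scored 21 days after application on a 0–5 scale (0 = <10%, 5 = ≥90% herbicidal effect or phytotoxicity).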

Echinochloa crusgalli = test: Test Example 3 paddy field treatment; settings: paddy field treatment, wettable powder, active ingredient 1 kg per hectare, 21st day after the dropping, index 0-5
Procedure, shortened: as §3

Monochoria vaginalis = test: Test Example 3 paddy field treatment; settings: paddy field treatment, wettable powder, active ingredient 1 kg per hectare, 21st day after the dropping, index 0-5
Procedure, shortened: as §3

Scirpus juncoides = test: Test Example 3 paddy field treatment; settings: paddy field treatment, wettable powder, active ingredient 1 kg per hectare, 21st day after the dropping, index 0-5
Procedure, shortened: as §3

Rice (Oryza sativa) = test: Test Example 3 paddy field treatment, crop phytotoxicity; settings: paddy field treatment, transplanted rice Koshihikari, wettable powder, active ingredient 1 kg per hectare, 21st day after the dropping, index 0-5
Procedure, shortened: as §3

Structure (SMILES)	Herbicidal activity CA: Chenopodium album (Chenopodium album [1])	Herbicidal activity DA: Digitaria adscendens (Digitaria adscendens [2])	Herbicidal activity SV: Setaria viridis (Setaria viridis [3])	Herbicidal activity SM: Stellaria media (Stellaria media [4])	Herbicidal activity (phytotoxicity) GM: Soybean (Glycine max) (soybean (Glycine max) [5])	Herbicidal activity (phytotoxicity) TA: Wheat (Triticum aestivum) [6]	Herbicidal activity CA: Chenopodium album (Chenopodium album [7])	Herbicidal activity DA: Digitaria adscendens (Digitaria adscendens [8])	Herbicidal activity SV: Setaria viridis (Setaria viridis [9])	Herbicidal activity SM: Stellaria media (Stellaria media [10])	Herbicidal activity (phytotoxicity) GM: Soybean (Glycine max) (soybean (Glycine max) [11])	Herbicidal activity (phytotoxicity) TA: Wheat (Triticum aestivum) [12]	Herbicidal activity AM (Ammannia multiflora)	Herbicidal activity EC (Echinochloa crusgalli)	Herbicidal activity MV (Monochoria vaginalis)	Herbicidal activity SJ (Scirpus juncoides)	Herbicidal activity OS (phytotoxicity to rice) (Rice (Oryza sativa))
CNC(=O)C(Cn1cc(C)c(-c2ccc(OC)cc2)n1)=NOC [Compound 41, 2-methoxyimino-3-((4′-methoxyphenyl)-4-methyl-pyrazole)-1-yl-propanoic acid-N-methylamide]	5 (herbicidal effect of not less than 90%, or phytotoxicity of 90% or more)	5 (herbicidal effect of not less than 90%, or phytotoxicity of 90% or more)	5 (herbicidal effect of not less than 90%, or phytotoxicity of 90% or more)	5 (herbicidal effect of not less than 90%, or phytotoxicity of 90% or more)	1 (herbicidal effect of not less than 10% and less than 30%, or phytotoxicity of 10% or more and less than 30%)	0 (herbicidal effect of not less than 0% and less than 10%, or phytotoxicity of 0% or more and less than 10%)	5 (herbicidal effect of not less than 90%, or phytotoxicity of 90% or more)	5 (herbicidal effect of not less than 90%, or phytotoxicity of 90% or more)	5 (herbicidal effect of not less than 90%, or phytotoxicity of 90% or more)	5 (herbicidal effect of not less than 90%, or phytotoxicity of 90% or more)	1 (herbicidal effect of not less than 10% and less than 30%, or phytotoxicity of 10% or more and less than 30%)	0 (herbicidal effect of not less than 0% and less than 10%, or phytotoxicity of 0% or more and less than 10%)	5 (herbicidal effect of not less than 90%, or phytotoxicity of 90% or more)	5 (herbicidal effect of not less than 90%, or phytotoxicity of 90% or more)	5 (herbicidal effect of not less than 90%, or phytotoxicity of 90% or more)	5 (herbicidal effect of not less than 90%, or phytotoxicity of 90% or more)	0 (herbicidal effect of not less than 0% and less than 10%, or phytotoxicity of 0% or more and less than 10%)
CNC(=O)C(Cn1cc(C)c(-c2cccc(F)c2)n1)=NOC [Compound 43]	5 (herbicidal effect of not less than 90%, or phytotoxicity of 90% or more)	5 (herbicidal effect of not less than 90%, or phytotoxicity of 90% or more)	5 (herbicidal effect of not less than 90%, or phytotoxicity of 90% or more)	5 (herbicidal effect of not less than 90%, or phytotoxicity of 90% or more)	0 (herbicidal effect of not less than 0% and less than 10%, or phytotoxicity of 0% or more and less than 10%)	0 (herbicidal effect of not less than 0% and less than 10%, or phytotoxicity of 0% or more and less than 10%)	5 (herbicidal effect of not less than 90%, or phytotoxicity of 90% or more)	5 (herbicidal effect of not less than 90%, or phytotoxicity of 90% or more)	5 (herbicidal effect of not less than 90%, or phytotoxicity of 90% or more)	5 (herbicidal effect of not less than 90%, or phytotoxicity of 90% or more)	1 (herbicidal effect of not less than 10% and less than 30%, or phytotoxicity of 10% or more and less than 30%)	0 (herbicidal effect of not less than 0% and less than 10%, or phytotoxicity of 0% or more and less than 10%)	5 (herbicidal effect of not less than 90%, or phytotoxicity of 90% or more)	5 (herbicidal effect of not less than 90%, or phytotoxicity of 90% or more)	5 (herbicidal effect of not less than 90%, or phytotoxicity of 90% or more)	5 (herbicidal effect of not less than 90%, or phytotoxicity of 90% or more)	1 (herbicidal effect of not less than 10% and less than 30%, or phytotoxicity of 10% or more and less than 30%)
CNC(=O)C(Cn1cc(C)c(-c2ccc(F)cc2)n1)=NOC [Compound 44]	5 (herbicidal effect of not less than 90%, or phytotoxicity of 90% or more)	5 (herbicidal effect of not less than 90%, or phytotoxicity of 90% or more)	5 (herbicidal effect of not less than 90%, or phytotoxicity of 90% or more)	5 (herbicidal effect of not less than 90%, or phytotoxicity of 90% or more)	0 (herbicidal effect of not less than 0% and less than 10%, or phytotoxicity of 0% or more and less than 10%)	0 (herbicidal effect of not less than 0% and less than 10%, or phytotoxicity of 0% or more and less than 10%)	5 (herbicidal effect of not less than 90%, or phytotoxicity of 90% or more)	5 (herbicidal effect of not less than 90%, or phytotoxicity of 90% or more)	5 (herbicidal effect of not less than 90%, or phytotoxicity of 90% or more)	5 (herbicidal effect of not less than 90%, or phytotoxicity of 90% or more)	0 (herbicidal effect of not less than 0% and less than 10%, or phytotoxicity of 0% or more and less than 10%)	0 (herbicidal effect of not less than 0% and less than 10%, or phytotoxicity of 0% or more and less than 10%)	5 (herbicidal effect of not less than 90%, or phytotoxicity of 90% or more)	5 (herbicidal effect of not less than 90%, or phytotoxicity of 90% or more)	5 (herbicidal effect of not less than 90%, or phytotoxicity of 90% or more)	5 (herbicidal effect of not less than 90%, or phytotoxicity of 90% or more)	1 (herbicidal effect of not less than 10% and less than 30%, or phytotoxicity of 10% or more and less than 30%)
